Reference: ChEMBL document CHEMBL5038615, “Discovery of a cinnamyl piperidine derivative as new neddylation inhibitor for gastric cancer treatment” (Eur J Med Chem, 2021)

What was measured:
MCF7 = experiment: Antiproliferative activity against human MCF7 cells assessed as inhibition of cell proliferation measured after 72 hrs by MTT assay; type: functional, cell-based; conditions: MCF7, 72 h
MGC-803 = experiment: Antiproliferative activity against human MGC-803 cells assessed as inhibition of cell proliferation measured after 72 hrs by MTT assay; type: functional, cell-based; conditions: MGC-803, 72 h
A549 = experiment: Antiproliferative activity against human A549 cells assessed as inhibition of cell proliferation measured after 72 hrs by MTT assay; type: functional, cell-based; conditions: A549, 72 h
HepG2 = experiment: Antiproliferative activity against human HepG2 cells assessed as inhibition of cell proliferation measured after 72 hrs by MTT assay; type: functional, cell-based; conditions: HepG2, 72 h
HGC-27 = experiment: Antiproliferative activity against human HGC-27 cells assessed as inhibition of cell proliferation measured after 72 hrs by MTT assay; type: functional, cell-based; conditions: HGC-27, 72 h
[1] = Cytotoxicity against human GES1 cells assessed as inhibition of cell proliferation measured after 72 hrs by MTT assay; type: toxicity, cell-based

N#Cc1ccc(NC(=O)C2CCN(C/C=C/c3ccccc3)CC2)cc1
IC50 (MCF7): 44.5 µM
IC50 (MGC-803): 28.2 µM
IC50 (A549): 40.2 µM
IC50 (HepG2): 38.3 µM

O=C(Nc1cccc(Cl)c1)C1CCN(C/C=C/c2ccccc2)CC1
IC50 (MCF7): 16.1 µM
IC50 (MGC-803): 11.3 µM
IC50 (A549): 19.1 µM
IC50 (HepG2): 20 µM

CCCc1ccc(NC(=O)C2CCN(C/C=C/c3ccccc3)CC2)cc1
IC50 (MCF7): 9.03 µM
IC50 (MGC-803): 5.21 µM
IC50 (A549): 9.47 µM
IC50 (HepG2): 9.41 µM

O=C(Nc1cc(-c2cccc(Br)c2)on1)C1CCN(C/C=C/c2ccccc2)CC1
IC50 (MCF7): 4.87 µM
IC50 (MGC-803): 4.61 µM
IC50 (A549): 6.53 µM
IC50 (HepG2): 4.42 µM

O=C(Nc1ccc(F)c(Br)c1)C1CCN(C/C=C/c2ccccc2)CC1
IC50 (MCF7): 13.5 µM
IC50 (MGC-803): 9.27 µM
IC50 (A549): 11.7 µM
IC50 (HepG2): 8.19 µM

COc1ccccc1NC(=O)C1CCN(C/C=C/c2ccccc2)CC1
IC50 (MCF7): > 100 µM
IC50 (MGC-803): 71.2 µM
IC50 (A549): > 100 µM
IC50 (HepG2): 91.2 µM

CCCCc1ccc(NC(=O)C2CCN(C/C=C/c3ccccc3)CC2)cc1
IC50 (MCF7): 5.87 µM
IC50 (MGC-803): 2.57 µM
IC50 (A549): 5.91 µM
IC50 (HepG2): 4.32 µM

NS(=O)(=O)OC[C@@H]1CC(n2ccc3c(N[C@H]4CCc5ccccc54)ncnc32)C[C@@H]1O (single isomer, unassigned) [PEVONEDISTAT]
IC50 (MCF7): > 100 µM
IC50 (HGC-27): 1.25 µM
IC50 (MGC-803): 5.16 µM
IC50 at 72 h [1]: 13.5 µM
IC50 (A549): 47.8 µM
IC50 (HepG2): 8.15 µM

O=C(Nc1cccc2cccnc12)C1CCN(C/C=C/c2ccccc2)CC1
IC50 (MCF7): 34.8 µM
IC50 (MGC-803): 38.1 µM
IC50 (A549): 51.6 µM
IC50 (HepG2): 29.5 µM

CCc1ccc(NC(=O)C2CCN(C/C=C/c3ccccc3)CC2)cc1
IC50 (MCF7): 20 µM
IC50 (MGC-803): 11.6 µM
IC50 (A549): 19.6 µM
IC50 (HepG2): 23.3 µM

O=C(Nc1ccccc1)C1CCN(C/C=C/c2ccccc2)CC1
IC50 (MCF7): 60.2 µM
IC50 (MGC-803): 57.9 µM
IC50 (A549): 69.7 µM
IC50 (HepG2): 90.9 µM

O=C(Nc1cccc(F)c1)C1CCN(C/C=C/c2ccccc2)CC1
IC50 (MCF7): 33 µM
IC50 (MGC-803): 23.3 µM
IC50 (A549): 43.3 µM
IC50 (HepG2): 51.1 µM

CN1CCN(c2ccc(NC(=O)C3CCN(C/C=C/c4ccccc4)CC3)cc2)CC1
IC50 (MCF7): 44 µM
IC50 (MGC-803): 14 µM
IC50 (A549): 19.9 µM
IC50 (HepG2): 35.2 µM

O=C(NCc1ccccc1)C1CCN(C/C=C/c2ccccc2)CC1
IC50 (MCF7): > 100 µM
IC50 (MGC-803): > 100 µM
IC50 (A549): > 100 µM
IC50 (HepG2): > 100 µM

O=C(Nc1ccccn1)C1CCN(C/C=C/c2ccccc2)CC1
IC50 (MCF7): 67.2 µM
IC50 (MGC-803): 45.2 µM
IC50 (A549): 89.3 µM
IC50 (HepG2): 51.1 µM

O=C(Nc1cccc(C(F)(F)F)c1)C1CCN(C/C=C/c2ccccc2)CC1
IC50 (MCF7): 16.1 µM
IC50 (MGC-803): 9.59 µM
IC50 (A549): 15.6 µM
IC50 (HepG2): 11.4 µM

COc1cccc(NC(=O)C2CCN(C/C=C/c3ccccc3)CC2)c1
IC50 (MCF7): 42.6 µM
IC50 (MGC-803): 37.2 µM
IC50 (A549): 50.5 µM
IC50 (HepG2): 78.6 µM

Cc1ccc(NC(=O)C2CCN(C/C=C/c3ccccc3)CC2)cc1
IC50 (MCF7): 30 µM
IC50 (MGC-803): 24.1 µM
IC50 (A549): 29.6 µM
IC50 (HepG2): 33.9 µM

COc1ccc(NC(=O)C2CCN(C/C=C/c3ccccc3)CC2)cc1
IC50 (MCF7): > 100 µM
IC50 (MGC-803): 58.2 µM
IC50 (A549): 83.8 µM
IC50 (HepG2): 88.8 µM

CC(C)c1ccc(NC(=O)C2CCN(C/C=C/c3ccccc3)CC2)cc1
IC50 (MCF7): 9.1 µM
IC50 (MGC-803): 5.2 µM
IC50 (A549): 9.43 µM
IC50 (HepG2): 12.2 µM

O=C(Nc1nccs1)C1CCN(C/C=C/c2ccccc2)CC1
IC50 (MCF7): 28.6 µM
IC50 (MGC-803): 16.4 µM
IC50 (A549): 34.9 µM
IC50 (HepG2): 22.4 µM

O=C(Nc1cccc(Br)c1)C1CCN(C/C=C/c2ccccc2)CC1
IC50 (MCF7): 11.5 µM
IC50 (MGC-803): 9.11 µM
IC50 (A549): 16.4 µM
IC50 (HepG2): 19.2 µM

O=c1[nH]cc(F)c(=O)[nH]1 [FLUOROURACIL]
IC50 (MCF7): 9.49 µM
IC50 (MGC-803): 12.1 µM
IC50 (A549): 15.1 µM
IC50 (HepG2): 6.69 µM

O=C(Nc1nc2ccc(Br)cc2s1)C1CCN(C/C=C/c2ccccc2)CC1
IC50 (MCF7): 14.6 µM
IC50 (MGC-803): 4.38 µM
IC50 (A549): 17.7 µM
IC50 (HepG2): 32.1 µM
